# In PubChem BioAssay (NCI):
#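 Growth conditions: 96-well plates. Treatment: test compound, 48 hours, 5 concentrations. Analysis: linear interpolation between bracketing concentrations; unreached endpoints set to highest concentration. The concentration for full growth arrest is given as TGI.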
# Key:
# Test in all cases: NCI anticancer screen, dose series, 48 h
# TK-10 renal = test system: TK-10 renal
# MDA-N = test system: MDA-N
# SK-OV-3 ovarian = test system: SK-OV-3 ovarian
# UACC-257 melanoma = test system: UACC-257 melanoma
# KM12 colon = test system: KM12 colon
# OVCAR-4 ovarian = test system: OVCAR-4 ovarian
# HS 578T breast = test system: HS 578T breast
# SF-295 CNS = test system: SF-295 CNS
# SW-620 colon = test system: SW-620 colon
# HCT-15 colon = test system: HCT-15 colon
# CAKI-1 renal = test system: CAKI-1 renal
# A498 renal = test system: A498 renal
# LOX IMVI melanoma = test system: LOX IMVI melanoma
# SK-MEL-5 melanoma = test system: SK-MEL-5 melanoma
# COLO 205 colon = test system: COLO 205 colon
# HCT-116 colon = test system: HCT-116 colon
# M14 melanoma = test system: M14 melanoma
# K-562 leukemia = test system: K-562 leukemia
# NCI-H522 lung = test system: NCI-H522 lung
# UO-31 renal = test system: UO-31 renal
# HOP-92 NSCLC = test system: HOP-92 NSCLC
# EKVX NSCLC = test system: EKVX NSCLC
# HCC-2998 colon = test system: HCC-2998 colon
# UACC-62 melanoma = test system: UACC-62 melanoma
# 786-0 renal = test system: 786-0 renal
# SN12C renal = test system: SN12C renal
# DU-145 prostate = test system: DU-145 prostate
# NCI-H23 lung = test system: NCI-H23 lung
# HOP-62 NSCLC = test system: HOP-62 NSCLC
# BT-549 breast = test system: BT-549 breast
# SNB-75 CNS = test system: SNB-75 CNS
# MDA-MB-231 breast = test system: MDA-MB-231 breast
# ACHN renal = test system: ACHN renal
# RPMI-8226 leukemia = test system: RPMI-8226 leukemia
# SF-539 CNS = test system: SF-539 CNS
# SK-MEL-2 melanoma = test system: SK-MEL-2 melanoma
# OVCAR-3 ovarian = test system: OVCAR-3 ovarian
# HL-60(TB) leukemia = test system: HL-60(TB) leukemia
# RXF 393 renal = test system: RXF 393 renal
# PC-3 prostate = test system: PC-3 prostate
# CCRF-CEM leukemia = test system: CCRF-CEM leukemia
# A549 NSCLC = test system: A549 NSCLC
# NCI-H226 lung = test system: NCI-H226 lung
# T-47D breast = test system: T-47D breast
# SNB-19 CNS = test system: SNB-19 CNS
# OVCAR-8 ovarian = test system: OVCAR-8 ovarian
# NCI/ADR-RES ovarian = test system: NCI/ADR-RES ovarian
# SR leukemia = test system: SR leukemia
# SF-268 CNS = test system: SF-268 CNS
# SK-MEL-28 melanoma = test system: SK-MEL-28 melanoma
# MCF7 breast = test system: MCF7 breast
# MOLT-4 leukemia = test system: MOLT-4 leukemia
# MALME-3M melanoma = test system: MALME-3M melanoma
# MDA-MB-435 = test system: MDA-MB-435
# OVCAR-5 ovarian = test system: OVCAR-5 ovarian
# HT29 colon = test system: HT29 colon
# IGROV1 ovarian = test system: IGROV1 ovarian
# NCI-H460 lung = test system: NCI-H460 lung
# U251 CNS = test system: U251 CNS
smiles,measurement,setting,value
COc1ccc(Oc2ccc3cc4c(cc3c2O)OCO4)c2cc(C)oc12,TGI,TK-10 renal,93.7 µM
same,TGI,MDA-N,> 100 µM
same,TGI,SK-OV-3 ovarian,> 100 µM
same,TGI,UACC-257 melanoma,61.1 µM
same,TGI,KM12 colon,> 100 µM
same,TGI,OVCAR-4 ovarian,> 100 µM
same,TGI,HS 578T breast,> 100 µM
same,TGI,SF-295 CNS,> 100 µM
same,TGI,SW-620 colon,> 100 µM
same,TGI,HCT-15 colon,> 100 µM
same,TGI,CAKI-1 renal,> 100 µM
same,TGI,A498 renal,> 100 µM
same,TGI,LOX IMVI melanoma,43.9 µM
same,TGI,SK-MEL-5 melanoma,32.3 µM
same,TGI,COLO 205 colon,72.3 µM
same,TGI,HCT-116 colon,> 100 µM
same,TGI,M14 melanoma,78.9 µM
same,TGI,K-562 leukemia,81.4 µM
same,TGI,NCI-H522 lung,93.7 µM
same,TGI,UO-31 renal,> 100 µM
same,TGI,HOP-92 NSCLC,70.1 µM
same,TGI,EKVX NSCLC,> 100 µM
same,TGI,HCC-2998 colon,49.8 µM
same,TGI,UACC-62 melanoma,> 100 µM
same,TGI,786-0 renal,> 100 µM
same,TGI,SN12C renal,> 100 µM
same,TGI,DU-145 prostate,> 100 µM
same,TGI,NCI-H23 lung,> 100 µM
same,TGI,HOP-62 NSCLC,> 100 µM
same,TGI,BT-549 breast,71.4 µM
same,TGI,SNB-75 CNS,> 100 µM
same,TGI,MDA-MB-231 breast,> 100 µM
same,TGI,ACHN renal,> 100 µM
same,TGI,RPMI-8226 leukemia,45.2 µM
same,TGI,SF-539 CNS,> 100 µM
same,TGI,SK-MEL-2 melanoma,47.4 µM
same,TGI,OVCAR-3 ovarian,> 100 µM
same,TGI,HL-60(TB) leukemia,83.9 µM
same,TGI,RXF 393 renal,45.1 µM
same,TGI,PC-3 prostate,> 100 µM
same,TGI,CCRF-CEM leukemia,89.2 µM
same,TGI,A549 NSCLC,> 100 µM
same,TGI,NCI-H226 lung,83.8 µM
same,TGI,T-47D breast,> 100 µM
same,TGI,SNB-19 CNS,> 100 µM
same,TGI,OVCAR-8 ovarian,> 100 µM
same,TGI,NCI/ADR-RES ovarian,78.8 µM
same,TGI,SR leukemia,93.3 µM
same,TGI,SF-268 CNS,> 100 µM
same,TGI,SK-MEL-28 melanoma,> 100 µM
same,TGI,MCF7 breast,> 100 µM
same,TGI,MOLT-4 leukemia,65.3 µM
same,TGI,MALME-3M melanoma,74.8 µM
same,TGI,MDA-MB-435,75.1 µM
same,TGI,OVCAR-5 ovarian,> 100 µM
same,TGI,HT29 colon,55.3 µM
same,TGI,IGROV1 ovarian,> 100 µM
same,TGI,NCI-H460 lung,64.3 µM
CCCc1[nH]nc(C(N)=O)c1N=NN(C)C,TGI,TK-10 renal,> 100 µM
same,TGI,MDA-N,> 100 µM
same,TGI,SK-OV-3 ovarian,> 100 µM
same,TGI,UACC-257 melanoma,> 100 µM
same,TGI,U251 CNS,> 100 µM
same,TGI,KM12 colon,> 100 µM
same,TGI,OVCAR-4 ovarian,> 100 µM
same,TGI,HS 578T breast,> 100 µM
same,TGI,SF-295 CNS,> 100 µM
same,TGI,SW-620 colon,> 100 µM
same,TGI,HCT-15 colon,> 100 µM
same,TGI,CAKI-1 renal,> 100 µM
same,TGI,A498 renal,> 100 µM
same,TGI,LOX IMVI melanoma,> 100 µM
same,TGI,SK-MEL-5 melanoma,> 100 µM
same,TGI,COLO 205 colon,> 100 µM
same,TGI,HCT-116 colon,> 100 µM
same,TGI,M14 melanoma,> 100 µM
same,TGI,K-562 leukemia,> 100 µM
same,TGI,NCI-H522 lung,74.9 µM
same,TGI,UO-31 renal,> 100 µM
same,TGI,HOP-92 NSCLC,> 100 µM
same,TGI,EKVX NSCLC,> 100 µM
same,TGI,HCC-2998 colon,> 100 µM
same,TGI,UACC-62 melanoma,> 100 µM
same,TGI,786-0 renal,> 100 µM
same,TGI,SN12C renal,> 100 µM
same,TGI,DU-145 prostate,> 100 µM
same,TGI,NCI-H23 lung,> 100 µM
same,TGI,HOP-62 NSCLC,> 100 µM
same,TGI,BT-549 breast,> 100 µM
same,TGI,SNB-75 CNS,> 100 µM
same,TGI,MDA-MB-231 breast,> 100 µM
same,TGI,ACHN renal,> 100 µM
same,TGI,RPMI-8226 leukemia,> 100 µM
same,TGI,SF-539 CNS,> 100 µM
same,TGI,SK-MEL-2 melanoma,> 100 µM
same,TGI,OVCAR-3 ovarian,> 100 µM
same,TGI,HL-60(TB) leukemia,> 100 µM
same,TGI,RXF 393 renal,> 100 µM
same,TGI,PC-3 prostate,> 100 µM
same,TGI,CCRF-CEM leukemia,> 100 µM
same,TGI,A549 NSCLC,> 100 µM
same,TGI,NCI-H226 lung,> 100 µM
same,TGI,T-47D breast,> 100 µM
same,TGI,SNB-19 CNS,> 100 µM
same,TGI,OVCAR-8 ovarian,> 100 µM
same,TGI,NCI/ADR-RES ovarian,> 100 µM
same,TGI,SR leukemia,40.6 µM
same,TGI,SF-268 CNS,> 100 µM
same,TGI,SK-MEL-28 melanoma,> 100 µM
same,TGI,MCF7 breast,80 µM
same,TGI,MOLT-4 leukemia,49 µM
same,TGI,MALME-3M melanoma,> 100 µM
same,TGI,MDA-MB-435,> 100 µM
same,TGI,HT29 colon,> 100 µM
same,TGI,IGROV1 ovarian,> 100 µM
